Measurements: US11192891B2, “Diazaspiro ROCK inhibitors” (BRISTOL-MYERS SQUIBB COMPANY, priority 2017, dated 2021)
Structures can show the parent of a compound that is named as a salt.

molecular target: ROCK2 (Homo sapiens, UniProt O75116); experiment: ROCK kinase inhibition assay, FITC peptide substrate, LABCHIP 3000 readout; format: biochemical; details: 5 μM ATP, 1.5 μM peptide substrate
Method in brief: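 Tested across a concentration range, with percent inhibition of kinase activity derived per concentration. Peptide phosphorylation, initiated by adding the Rho kinase variant (final DMSO <2%), was quenched with EDTA and substrate/product resolved by mobility shift.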

Chain of ROCK2 (O75116 whole entry, species assumed): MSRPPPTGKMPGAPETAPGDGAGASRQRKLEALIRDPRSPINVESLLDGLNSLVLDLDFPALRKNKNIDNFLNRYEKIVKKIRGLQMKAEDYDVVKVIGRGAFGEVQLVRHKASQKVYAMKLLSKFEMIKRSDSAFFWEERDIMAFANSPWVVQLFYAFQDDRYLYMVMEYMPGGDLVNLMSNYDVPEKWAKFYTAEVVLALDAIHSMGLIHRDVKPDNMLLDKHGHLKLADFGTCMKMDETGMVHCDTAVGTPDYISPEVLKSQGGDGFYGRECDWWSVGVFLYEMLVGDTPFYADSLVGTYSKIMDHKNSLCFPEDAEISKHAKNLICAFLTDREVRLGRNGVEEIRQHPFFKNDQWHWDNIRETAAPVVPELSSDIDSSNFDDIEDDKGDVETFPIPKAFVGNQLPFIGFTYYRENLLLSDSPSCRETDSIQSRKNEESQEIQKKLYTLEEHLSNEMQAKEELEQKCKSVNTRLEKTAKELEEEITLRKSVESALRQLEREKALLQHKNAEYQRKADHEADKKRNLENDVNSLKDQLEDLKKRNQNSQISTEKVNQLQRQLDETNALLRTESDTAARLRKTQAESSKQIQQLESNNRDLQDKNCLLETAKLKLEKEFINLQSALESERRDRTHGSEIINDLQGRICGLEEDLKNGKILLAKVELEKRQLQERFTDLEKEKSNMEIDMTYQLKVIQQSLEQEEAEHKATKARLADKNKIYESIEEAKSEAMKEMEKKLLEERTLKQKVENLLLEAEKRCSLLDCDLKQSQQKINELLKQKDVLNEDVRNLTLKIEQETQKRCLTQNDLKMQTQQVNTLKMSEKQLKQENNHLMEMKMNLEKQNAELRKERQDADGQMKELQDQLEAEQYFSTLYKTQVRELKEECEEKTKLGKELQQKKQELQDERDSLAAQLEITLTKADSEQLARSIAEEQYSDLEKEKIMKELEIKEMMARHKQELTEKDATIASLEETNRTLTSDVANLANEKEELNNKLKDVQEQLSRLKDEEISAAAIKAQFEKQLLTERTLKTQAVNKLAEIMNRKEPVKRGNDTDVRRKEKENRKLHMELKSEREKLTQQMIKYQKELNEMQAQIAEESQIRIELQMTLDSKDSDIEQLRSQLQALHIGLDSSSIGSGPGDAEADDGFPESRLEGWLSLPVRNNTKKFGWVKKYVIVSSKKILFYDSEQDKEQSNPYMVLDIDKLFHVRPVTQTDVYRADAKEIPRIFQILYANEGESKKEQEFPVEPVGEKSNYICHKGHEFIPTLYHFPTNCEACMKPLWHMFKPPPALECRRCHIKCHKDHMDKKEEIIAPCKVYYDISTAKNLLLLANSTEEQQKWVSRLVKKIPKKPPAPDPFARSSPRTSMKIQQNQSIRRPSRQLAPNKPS

IC50	Compound
29 nM	COc1ccc(C(=O)N2CCC3(CC2)CCN(c2ccc(-c4cn[nH]c4)c(OC)c2)C3=O)c(OC)c1 [Example 174, 8-(2,4-dimethoxybenzoyl)-2-[3-methoxy-4-(1H-pyrazol-4-yl)phenyl]-2,8-diazaspiro[4.5]decan-1-one]
86 nM	COc1cnc(C(=O)N2CCC3(CC2)CCN(c2ccc(-c4cn[nH]c4)c(OC)c2)C3=O)cn1 [Example 101, 2-[3-methoxy-4-(1H-pyrazol-4-yl)phenyl]-8-(5-methoxypyrazine-2-carbonyl)-2,8-diazaspiro[4.5]decan-1-one]
1.2 nM	COc1cc(N2CCC3(CCN(C(=O)c4ccc(N5CCN(Cc6cccc(Cl)c6)CC5)cc4)CC3)C2=O)ccc1-c1cn[nH]c1 [Example 186, 8-(4-{4-[(3-chlorophenyl)methyl]piperazin-1-yl}benzoyl)-2-[3-methoxy-4-(1H-pyrazol-4-yl)phenyl]-2,8-diazaspiro[4.5]decan-1-one]
65 nM	COc1cc(N2CCC3(CCN(C(=O)c4ccc(Cl)cn4)CC3)C2=O)ccc1-c1cn[nH]c1 [Example 123, 8-(5-chloropyridine-2-carbonyl)-2-[3-methoxy-4-(1H-pyrazol-4-yl)phenyl]-2,8-diazaspiro[4.5]decan-1-one]
1010 nM	O=C1N(c2ccc(-c3cn[nH]c3)cc2)CCC12CCNCC2 [Intermediate 3, 2-(4-(1H-pyrazol-4-yl)phenyl)-2,8-diazaspiro[4.5]decan-1-one, TFA]
33 nM	COc1cc(N2CCC3(CCN(C(=O)c4ccc(Br)cc4)CC3)C2=O)ccc1-c1cn[nH]c1 [Example 195, 8-(4-bromobenzoyl)-2-[3-methoxy-4-(1H-pyrazol-4-yl)phenyl]-2,8-diazaspiro[4.5]decan-1-one]
436 nM	COc1cc(N2CCC3(CCN(C(=O)[C@@H]4C[C@H]4c4ccccc4)CC3)C2=O)ccc1-c1cn[nH]c1 [Example 91, 2-[3-methoxy-4-(1H-pyrazol-4-yl)phenyl]-8-[(1R,2R)-2-phenylcyclopropanecarbonyl]-2,8-diazaspiro[4.5]decan-1-one]
3.1 nM	COc1cc(N2CCC3(CCN(C(=O)c4ccc(N5CCN(C(C)CN(C)C)CC5)cc4)CC3)C2=O)ccc1-c1cn[nH]c1 (stereo not shown) [Example 232, 8-(4-{4-[1-(dimethylamino)propan-2-yl]piperazin-1-yl}benzoyl)-2-[3-methoxy-4-(1H-pyrazol-4-yl)phenyl]-2,8-diazaspiro[4.5]decan-1-one]
29 nM	COc1cc(-c2cn[nH]c2)ccc1C(=O)N1CCC2(CC1)CCN(c1ccc(-c3cn[nH]c3)c(OC)c1)C2=O [Example 159, 8-[2-methoxy-4-(1H-pyrazol-4-yl)benzoyl]-2-[3-methoxy-4-(1H-pyrazol-4-yl)phenyl]-2,8-diazaspiro[4.5]decan-1-one]
2250 nM	COc1cccc(NC(=O)N2CCC3(CC2)CCN(c2ccc(-c4cn[nH]c4)c(OC)c2)C3=O)c1 [Example 216, 2-[3-methoxy-4-(1H-pyrazol-4-yl)phenyl]-N-(3-methoxyphenyl)-1-oxo-2,8-diazaspiro[4.5]decane-8-carboxamide]
118 nM	COc1ccc2cc(C(=O)N3CCC4(CC3)CCN(c3ccc(-c5cn[nH]c5)c(OC)c3)C4=O)n(C)c2c1 [Example 170, 8-(6-methoxy-1-methyl-1H-indole-2-carbonyl)-2-[3-methoxy-4-(1H-pyrazol-4-yl)phenyl]-2,8-diazaspiro[4.5]decan-1-one]

The next lines start with the molecule.

Compound	IC50
COc1cc(N2CCC3(CCN(C(=O)c4cnc(C)cn4)CC3)C2=O)ccc1-c1cn[nH]c1 [Example 79, 2-[3-methoxy-4-(1H-pyrazol-4-yl)phenyl]-8-(5-methylpyrazine-2-carbonyl)-2,8-diazaspiro[4.5]decan-1-one]	110 nM
CN1CCN(c2ccc(C(=O)N3CCC4(CC3)CCN(c3cccc(-c5ccc6[nH]ncc6c5)c3)C4=O)cc2)CC1 [Example 51, 2-[3-(1H-indazol-5-yl)phenyl]-8-[4-(4-methylpiperazin-1-yl)benzoyl]-2,8-diazaspiro[4.5]decan-1-one]	14 nM
O=C1N(c2ccc(-c3cn[nH]c3)cc2)CCC12CCN(S(=O)(=O)c1ccccc1)C2 (stereo not shown) [Example 46, 7-(benzenesulfonyl)-2-[4-(1H-pyrazol-4-yl)phenyl]-2,7-diazaspiro[4.4]nonan-1-one]	750 nM
COc1cc(N2CCC3(CCN(C(=O)c4ncc(OC)c5ccccc45)CC3)C2=O)ccc1-c1cn[nH]c1 [Example 90, 2-[3-methoxy-4-(1H-pyrazol-4-yl)phenyl]-8-(4-methoxyisoquinoline-1-carbonyl)-2,8-diazaspiro[4.5]decan-1-one]	127 nM
CN1CCN(c2ccc(C(=O)N3CCC4(CC3)CCN(c3cccc(-c5cn[nH]c5)c3)C4=O)cc2)CC1 [Example 48, 8-[4-(4-methylpiperazin-1-yl)benzoyl]-2-[3-(1H-pyrazol-4-yl)phenyl]-2,8-diazaspiro[4.5]decan-1-one]	1100 nM
COc1ccc(C(=O)N2CCC3(CC2)CCN(c2ccc(-c4cn[nH]c4)c(OC)c2)C3=O)cc1Cl [Example 22, 8-(3-chloro-4-methoxybenzoyl)-2-[3-methoxy-4-(1H-pyrazol-4-yl)phenyl]-2,8-diazaspiro[4.5]decan-1-one]	6 nM
COc1cc(N2CCC3(CCN(C(=O)c4ccc5c(c4)OCO5)CC3)C2=O)ccc1-c1cn[nH]c1 [Example 69, 8-(2H-1,3-benzodioxole-5-carbonyl)-2-[3-methoxy-4-(1H-pyrazol-4-yl)phenyl]-2,8-diazaspiro[4.5]decan-1-one]	93 nM
O=C1N(c2ccc(-c3cn[nH]c3)cc2)CCC12CCN(S(=O)(=O)c1ccccc1)CC2 [Example 2, 8-(benzenesulfonyl)-2-[4-(1H-pyrazol-4-yl)phenyl]-2,8-diazaspiro[4.5]decan-1-one]	330 nM
CN1CCN(c2ccc(C(=O)N3CCC4(CC3)CCN(c3ccc(-c5cn[nH]c5)cc3)C4=O)cc2)CC1 [Example 31, 8-[4-(4-methylpiperazin-1-yl)benzoyl]-2-[4-(1H-pyrazol-4-yl)phenyl]-2,8-diazaspiro[4.5]decan-1-one]	0.7 nM
CN1CCN(c2ccc(C(=O)N3CCC4(CC3)CCN(c3ccc(-c5ccc6cn[nH]c6c5)cc3)C4=O)cc2)CC1 [Example 34, 2-[4-(1H-indazol-6-yl)phenyl]-8-[4-(4-methylpiperazin-1-yl)benzoyl]-2,8-diazaspiro[4.5]decan-1-one]	106 nM
O=C(c1ccccc1)N1CCC2(CC1)CCN(c1ccc(-c3cn[nH]c3)cc1)C2=O [Example 1, 8-benzoyl-2-[4-(1H-pyrazol-4-yl)phenyl]-2,8-diazaspiro[4.5]decan-1-one]	326 nM
COc1ccc(C(=O)N2CCC3(CC2)CCN(c2ccc(-c4cn[nH]c4)c(OC)n2)C3=O)cc1 [Example 39, 2-[6-methoxy-5-(1H-pyrazol-4-yl)pyridin-2-yl]-8-(4-methoxybenzoyl)-2,8-diazaspiro[4.5]decan-1-one]	4 nM
CN1CCN(c2ccc(C(=O)N3CCC4(CC3)CCN(c3ccc(-c5ccnc(N)c5)cc3)C4=O)cc2)CC1 [Example 36, 2-[4-(2-aminopyridin-4-yl)phenyl]-8-[4-(4-methylpiperazin-1-yl)benzoyl]-2,8-diazaspiro[4.5]decan-1-one]	2 nM
COc1cc(N2CCC3(CCN(C(=O)c4cc5ccccc5[nH]4)CC3)C2=O)ccc1-c1cn[nH]c1 [Example 68, 8-(1H-indole-2-carbonyl)-2-[3-methoxy-4-(1H-pyrazol-4-yl)phenyl]-2,8-diazaspiro[4.5]decan-1-one]	467 nM
